In patent US20230340011A1 (Asteroid Therapeutics, priority 2022, published 2023) one finds IC50 and EC50 data, which are given here for 18 compounds.

Experiment [1] deals with SREBP-2 (Homo sapiens (Human), UniProt Q12772). Nature of the experiment: In vitro assay SREBP-2: PathHunter U2OS SREBP-2 Nuclear Translocation Cell Line, U18666A-stimulated. The format is cell-based. The following applies: PathHunter U2OS SREBP-2 nuclear translocation cells, U18666A 10 μM, overnight (16 hours).
Experiment [2] concerns the target LXRβ (Homo sapiens (Human), UniProt P55055). As to the kind of experiment: In vitro assay LXRβ: PathHunter NHR CHO cells, LXRβ / Steroid Receptor Co-activator Peptide enzyme fragment complementation. Format: cell-based. The following applies: PathHunter NHR CHO cells, full-length human LXRβ and SRCP, chemiluminescent signal; read-out: LXRβ PPI. A digest of the protocol: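 Enzyme fragment complementation read-out: CHO cells stably expressing ProLink-tagged full-length human LXRβ plus nuclear enzyme acceptor–SRCP fusion, seeded and held overnight at 37° C. Medium with charcoal-dextran filtered serum; final vehicle 1%. Chemiluminescence measured after signal generation.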

Sequence of LXRβ (P55055 whole entry, the tested form may be a part): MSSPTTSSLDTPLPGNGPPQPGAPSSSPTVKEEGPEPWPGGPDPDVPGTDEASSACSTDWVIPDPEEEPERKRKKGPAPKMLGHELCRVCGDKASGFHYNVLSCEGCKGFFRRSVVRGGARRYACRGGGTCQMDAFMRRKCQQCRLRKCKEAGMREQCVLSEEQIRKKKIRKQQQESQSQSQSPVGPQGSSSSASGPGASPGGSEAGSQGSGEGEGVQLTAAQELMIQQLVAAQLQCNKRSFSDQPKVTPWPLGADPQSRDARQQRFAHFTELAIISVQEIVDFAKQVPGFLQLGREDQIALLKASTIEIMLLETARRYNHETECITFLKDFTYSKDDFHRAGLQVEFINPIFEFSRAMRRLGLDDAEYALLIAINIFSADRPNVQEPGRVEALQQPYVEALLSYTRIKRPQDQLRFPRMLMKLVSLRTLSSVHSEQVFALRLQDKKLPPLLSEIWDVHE

For orientation: IC50 means the concentration that inhibits the measured activity by half. The compound `C[C@H](CCC(=O)N1CCC(C(C)(C)O)CC1)[C@H]1CC[C@H]2[C@@H]3CC=C4C[C@@H](O)CC[C@]4(C)[C@H]3CC[C@]12C` [Example 378, (R)-4-((3S,8S,9S,10R,13R,14S,17R)-3-hydroxy-10,13-dimethyl-2,3,4,7,8,9,10,11,12,13,14,15,16,17-tetradecahydro-1H-cyclopenta[a]phenanthren-17-yl)-1-(4-(2-hydroxypropan-2-yl)piperidin-1-yl)pentan-1-one] gave a concentration for half-maximal inhibition (IC50) in experiment [1] of under 250 nM. The EC50 in experiment [2] was over 10000 nM.
In the same order, the values of `C[C@H](Oc1ccncc1)[C@H]1CC[C@H]2[C@@H]3CC=C4C[C@@H](O)CC[C@]4(C)[C@H]3CC[C@]12C` [Example 379, (1S,3aS,3bS,7S,9aR,9bS,11aS)-9a,11a-dimethyl-1-[(1S)-1-(pyridin-4-yloxy)ethyl]-1H,2H,3H,3aH,3bH,4H,6H,7H,8H,9H,9aH,9bH,10H,11H,11aH-cyclopenta[a]phenanthren-7-ol] are 250 to 1000 nM and over 10000 nM.
As to `C[C@H](Oc1cccnc1)[C@H]1CC[C@H]2[C@@H]3CC=C4C[C@@H](O)CC[C@]4(C)[C@H]3CC[C@]12C` [Example 380, (3S,8S,9S,10R,13S,14S,17S)-10,13-dimethyl-17-((S)-1-(pyridin-3-yloxy)ethyl)-2,3,4,7,8,9,10,11,12,13,14,15,16,17-tetradecahydro-1H-cyclopenta[a]phenanthren-3-ol], the IC50 in experiment [1] was under 250 nM. The EC50 in experiment [2] was over 10000 nM.
In the same order, the values of `C[C@H](CCC(=O)N1CCN(C(=O)c2ncnn2C)CC1)[C@H]1CC[C@H]2[C@@H]3CC=C4C[C@@H](O)CC[C@]4(C)[C@H]3CC[C@]12C` [Example 382, (R)-4-((3S,8S,9S,10R,13R,14S,17R)-3-hydroxy-10,13-dimethyl-2,3,4,7,8,9,10,11,12,13,14,15,16,17-tetradecahydro-1H-cyclopenta[a]phenanthren-17-yl)-1-(4-(1-methyl-1H-1,2,4-triazole-5-carbonyl)piperazin-1-yl)pentan-1-one] are under 250 nM and over 10000 nM.
In the same order, the values of `CCC(=O)N1CCN(C(=O)CC[C@@H](C)[C@H]2CC[C@H]3[C@@H]4CC=C5C[C@@H](O)CC[C@]5(C)[C@H]4CC[C@]23C)CC1` [Example 385, (R)-4-((3S,8S,9S,10R,13R,14S,17R)-3-hydroxy-10,13-dimethyl-2,3,4,7,8,9,10,11,12,13,14,15,16,17-tetradecahydro-1H-cyclopenta[a]phenanthren-17-yl)-1-(4-propionylpiperazin-1-yl) pentan-1-one] are under 250 nM and over 10000 nM.
Take `C[C@H](CCC(=O)N1CCN(c2ccncc2)CC1)[C@H]1CC[C@H]2[C@@H]3CC=C4C[C@@H](O)CC[C@]4(C)[C@H]3CC[C@]12C` [Example 396, (R)-4-((3S,8S,9S,10R,13R,14S,17R)-3-hydroxy-10,13-dimethyl-2,3,4,7,8,9,10,11,12,13,14,15,16,17-tetradecahydro-1H-cyclopenta[a]phenanthren-17-yl)-1-(4-(pyridin-4-yl)piperazin-1-yl)pentan-1-one]: in experiment [1], the half-inhibitory concentration (IC50) was under 250 nM. For the same compound, the EC50 in experiment [2] is over 10000 nM.
In the same order, the values of `CC(=O)N1CCOC12CN(C(=O)CC[C@@H](C)[C@H]1CC[C@H]3[C@@H]4CC=C5C[C@@H](O)CC[C@]5(C)[C@H]4CC[C@]13C)C2` [Example 410, (4R)-4-[(1R,3aS,3bS,7S,9aR,9bS,11aR)-7-hydroxy-9a,11a-dimethyl-1H,2H,3H,3aH,3bH,4H,6H,7H,8H,9H,9aH,9bH,10H,11H,11aH-cyclopenta[a]phenanthren-1-yl]-1-{δ-acetyl-5-oxa-2,8-diazaspiro[3.4]octan-2-yl}pentan-1-one] are 1000 to 10000 nM and over 10000 nM.
The like results for `C[C@H](CCC(=O)N1CCC(S(=O)(=O)N(C)C)CC1)[C@H]1CC[C@H]2[C@@H]3CC=C4C[C@@H](O)CC[C@]4(C)[C@H]3CC[C@]12C` [Example 413, 1-((R)-4-((3S,8S,9S,10R,13R,14S,17R)-3-hydroxy-10,13-dimethyl-2,3,4,7,8,9,10,11,12,13,14,15,16,17-tetradecahydro-1H-cyclopenta[a]phenanthren-17-yl)pentanoyl)-N,N-dimethylpiperidine-4-sulfonamide] were, in that order, 250 to 1000 nM and over 10000 nM.
The like results for `C[C@H](CCC(=O)N1CCC(NS(C)(=O)=O)CC1)[C@H]1CC[C@H]2[C@@H]3CC=C4C[C@@H](O)CC[C@]4(C)[C@H]3CC[C@]12C` [Example 414, N-(1-((R)-4-((3S,8S,9S,10R,13R,14S,17R)-3-hydroxy-10,13-dimethyl-2,3,4,7,8,9,10,11,12,13,14,15,16,17-tetradecahydro-1H-cyclopenta[a]phenanthren-17-yl)pentanoyl)piperidin-4-yl)methanesulfonamide] were, in that order, 250 to 1000 nM and over 10000 nM.
`C[C@H](CCC(=O)N1CCC(N(C)C(=O)c2ccncc2)CC1)[C@H]1CC[C@H]2[C@@H]3CC=C4C[C@@H](O)CC[C@]4(C)[C@H]3CC[C@]12C` [Example 416, N-(1-((R)-4-((3S,8S,9S,10R,13R,14S,17R)-3-hydroxy-10,13-dimethyl-2,3,4,7,8,9,10,11,12,13,14,15,16,17-tetradecahydro-1H-cyclopenta[a]phenanthren-17-yl)pentanoyl)piperidin-4-yl)-N-methylisonicotinamide] returned an IC50 in experiment [1] of under 250 nM. Also, in experiment [2], the EC50 was over 10000 nM.
With `CC[C@]1(O)CC[C@@]2(C)C(=CC[C@H]3[C@@H]4CC[C@H]([C@H](C)CCC(=O)N5CCN(C(=O)OC)CC5)[C@@]4(C)CC[C@@H]32)C1` [Example 420, Methyl 4-[(4R)-4-[(1R,3aS,3bS,7S,9aR,9bS,11aR)-7-ethyl-7-hydroxy-9a,11a-dimethyl-1H,2H,3H,3aH,3bH,4H,6H,7H,8H,9H,9aH,9bH,10H,11H,11aH-cyclopenta[a]phenanthren-1-yl]pentanoyl]piperazine-1-carboxylate], in experiment [1], the concentration for half-maximal inhibition (IC50) is under 250 nM. The EC50 in experiment [2] was over 10000 nM.
The like results for `C[C@H](CCc1ncccc1CO)[C@H]1CC[C@H]2[C@@H]3CC=C4C[C@@H](O)CC[C@]4(C)[C@H]3CC[C@]12C` [Example 454, (3S,8S,9S,10R,13R,14S,17R)-17-((R)-4-(3-(hydroxymethyl)pyridin-2-yl)butan-2-yl)-10,13-dimethyl-2,3,4,7,8,9,10,11,12,13,14,15,16,17-tetradecahydro-1H-cyclopenta[a]phenanthren-3-ol] were, in that order, under 250 nM and under 250 nM.
Take `CC(O)c1cccnc1CC[C@@H](C)[C@H]1CC[C@H]2[C@@H]3CC=C4C[C@@H](O)CC[C@]4(C)[C@H]3CC[C@]12C` (stereo partly drawn) [Example 455, (3S,8S,9S,10R,13R,14S,17R)-17-((2R)-4-(3-(1-hydroxyethyl)pyridin-2-yl)butan-2-yl)-10,13-dimethyl-2,3,4,7,8,9,10,11,12,13,14,15,16,17-tetradecahydro-1H-cyclopenta[a]phenanthren-3-ol]: the IC50 in experiment [1] is under 250 nM. Also, the EC50 in experiment [2] was under 250 nM.
Take `COC(C)C1CCN(C(=O)CC[C@@H](C)[C@H]2CC[C@H]3[C@@H]4CC=C5C[C@@H](O)CC[C@]5(C)[C@H]4CC[C@]23C)CC1` (stereo partly drawn) [Example 469, (4R)-4-((3S,8S,9S,10R,13R,14S,17R)-3-hydroxy-10,13-dimethyl-2,3,4,7,8,9,10,11,12,13,14,15,16,17-tetradecahydro-1H-cyclopenta[a]phenanthren-17-yl)-1-(4-(1-methoxyethyl)piperidin-1-yl)pentan-1-one]: the half-maximal inhibitory concentration (IC50) in experiment [1] was under 250 nM. The EC50 in experiment [2] is 250 to 1000 nM.
The like results for `C[C@H](CCC(=O)N1CCN(c2cncn2C)CC1)[C@H]1CC[C@H]2[C@@H]3CC=C4C[C@@H](O)CC[C@]4(C)[C@H]3CC[C@]12C` [Example 481, (4R)-4-[(1R,3aS,3bS,7S,9aR,9bS,11aR)-7-hydroxy-9a,11a-dimethyl-1H,2H,3H,3aH,3bH,4H,6H,7H,8H,9H,9aH,9bH,10H,11H,11aH-cyclopenta[a]phenanthren-1-yl]-1-[4-(1-methyl-1H-imidazol-5-yl)piperazin-1-yl]pentan-1-one] were, in that order, under 250 nM and over 10000 nM.
In the same order, the values of `Cc1nnc(N2CCN(C(=O)CC[C@@H](C)[C@H]3CC[C@H]4[C@@H]5CC=C6C[C@@H](O)CC[C@]6(C)[C@H]5CC[C@]34C)CC2)o1` [Example 482, (R)-4-((3S,8S,9S,10R,13R,14S,17R)-3-hydroxy-10,13-dimethyl-2,3,4,7,8,9,10,11,12,13,14,15,16,17-tetradecahydro-1H-cyclopenta[a]phenanthren-17-yl)-1-(4-(5-methyl-1,3,4-oxadiazol-2-yl)piperazin-1-yl)pentan-1-one] are under 250 nM and over 10000 nM.
The compound `C[C@H](CCC(=O)N1CCN(c2ccnnc2)CC1)[C@H]1CC[C@H]2[C@@H]3CC=C4C[C@@H](O)CC[C@]4(C)[C@H]3CC[C@]12C` [Example 487, (R)-4-((3S,8S,9S,10R,13R,14S,17R)-3-hydroxy-10,13-dimethyl-2,3,4,7,8,9,10,11,12,13,14,15,16,17-tetradecahydro-1H-cyclopenta[a]phenanthren-17-yl)-1-(4-(pyridazin-4-yl)piperazin-1-yl)pentan-1-one] came in with an IC50 in experiment [1] of under 250 nM. For the same compound, the EC50 in experiment [2] is over 10000 nM.
In the same order, the values of `Cc1noc(N2CCN(C(=O)CC[C@@H](C)[C@H]3CC[C@H]4[C@@H]5CC=C6C[C@@H](O)CC[C@]6(C)[C@H]5CC[C@]34C)CC2)n1` [Example 495, (R)-4-((3S,8S,9S,10R,13R,14S,17R)-3-hydroxy-10,13-dimethyl-2,3,4,7,8,9,10,11,12,13,14,15,16,17-tetradecahydro-1H-cyclopenta[a]phenanthren-17-yl)-1-(4-(3-methyl-1,2,4-oxadiazol-5-yl)piperazin-1-yl)pentan-1-one] are under 250 nM and over 10000 nM.
